# Measured values published in patent publication US20150374725A1, “METHODS AND COMPOSITIONS FOR TREATING AND PREVENTING INTESTINAL INJURY AND DISEASES RELATED TO TIGHT JUNCTION DYSFUNCTION” (PRELIEF INC., priority 2013, published 2015).
# Assays:
# Caco-2 cells [1] = experiment: Baseline E-cadherin expression; type: cell-based, human
# Description: (3) E-Cadherin Expression:
# E-cadherin is the principle protein of tight junctions. The level of E-cadherin is measured in homogenized Caco-2 cells by western blot analysis using commercially available antibodies. Since it is possible that E-cadherin might be expressed as a protein, but sequestered away from the cell membrane, surface E-cadherin is also measured using either flow cytometry or fluorescent microscopy. The ratio of surface to total E-cadherin is calculated. The expression levels of E-cadherin are measured in Caco-2 cells in the presence and absence of CGP. The expression levels of other proteins of tight junctions in Caco-2 cells in the presence or absence of CGP can also be measured using methods known in the art in view of the present disclosure.
# Caco-2 cells [2] = experiment: Mannitol Flux Assay under ischemia-mimicking conditions (no glucose, 1% oxygen); type: cell-based, human
# Description: Mannitol Flux Assay was performed as follows. At the start of the experiment (time 0), the media on the cells was changed to one containing no glucose and no fetal calf serum, and the environment was changed from 95% […]/5% CO2, to 1% oxygen, 5% CO2 and 94% nitrogen. These conditions mimic ischemia (no food, no oxygen).
# It was observed that cells responded to the ischemia conditions by letting go of non-essential functions, like maintaining tight junctions. It appears that by adding CGP, the cells were able to retain tight junction integrity for a longer period of time.
# Specifically, Table 2 and FIG. 4 show the percentage increase in mannitol penetration at two and four hours after CGP administration. The movement of mannitol is inversely proportional to the tightness of the tight junctions. It can be seen that the magnitude of the increase in tightness of the tight junctions (or decrease in mannitol flux) was proportional to the concentration of CGP in the media. While it is possible that the cells are merely using the glycerol phosphate to replace glucose, this is extremely unlikely, as the effect persists even at 0.000001 molar CGP. The usual glucose concentration in the media is around 10 mM, ten times greater than the highest CGP concentration, and 10,000 times greater than the lowest concentration of CGP.
# Caco-2 cells [3] = experiment: TEER during cytomix treatment; type: cell-based, human; settings: FIG. 8
# Description: The effect of exogenous cytokines was measured for each parameter in the presence and absence of CGP. Both hypoxia and celiac disease are characterized by the release of cytokines by cells of the immune system. These inflammatory mediators increase monolayer permeability (M. Bayardo et al. Clin Exp Immunol.; 168(1):95-104 (2012)). Cells were grown to confluence on transwell inserts, then challenged with a mixture of the cytokines TNFα (tumor necrosis factor alpha), ILβ (interleukin beta), and IFγ (interferon gamma) (“cytomix”) in the presence or absence of increasing concentrations of CGP. At the appropriate time points, apical to basolateral mannitol flux was measured. TEER, E-Cadherin expression and media concentrations of S1P were measured in separate experiments. […] Exogenous cytokines may decrease TEER and increase mannitol flux.
# Cytokines are a category of small proteins that are important in cell-cell signaling. There are many types and functions of cytokines. Three of the cytokines, TNFα (tumor necrosis factor alpha), ILβ (interleukin beta), and IFγ (interferon gamma) are involved in cell signaling during inflammation. […] First, neutrophils and other cells mediating the immune response are recruited to ischemic tissue. Second, the intestinal damage of celiac disease is dependent on inflammation. […]
# Caco-2 cells [4] = experiment: TEER during hypoxia; type: cell-based, human; settings: FIG. 6
# Description: (§1) The effect of hypoxia on transepithelial permeability was measured for each parameter in the presence and absence of CGP. Cells were grown to confluence in normoxic conditions on transwell inserts, then transferred to a hypoxia chamber (95% N2/5% CO2) and media was changed to one sparged with 95% N2/5% CO2 and containing no glucose. Under these conditions, which simulate ischemia, the partial pressure of residual oxygen is less than 25 mm Hg (6%). Control wells contained only media; the remaining wells contained increasing concentrations of calcium glycerophosphate. TEER and mannitol flux were measured in the hypoxia chamber. E-Cadherin expression or S1P determination was determined in room air using samples prepared in the hypoxia chamber. Hypoxia may decrease TEER and S1P, increase both apical to basolateral and basolateral to apical mannitol flux without changing E-cadherin expression. These effects may be mitigated by CGP.
# Hypoxia/ischemia is a state of diminished oxygen and nutrient supply such that cellular demands are not met. […]
# For these studies, cells were grown on transwells until confluent, as measured by TEER values of […]. As there is some variability in baseline TEER, all data have been expressed as a % of baseline TEER. […]
# Caco-2 cells [5] = experiment: Apical to basolateral [14C]mannitol flux during hypoxia; type: cell-based, human; settings: FIG. 5
# Description: as §1
# Hypoxia/ischemia is a state of diminished oxygen and nutrient supply such that cellular demands are not met. […] It was hypothesized that the increased transepithelial permeability is the consequence of intestinal hypoxia (itself a consequence of diversion of blood flow from the gut during heavy exercise), and that the permeability might be alleviated by CGP treatment. […]
# Caco-2 cells [6] = experiment: Baseline trans-epithelial electrical resistance (TEER); type: cell-based, human
# Caco-2 cells [7] = experiment: Transepithelial mannitol flux induced by cytomix; type: cell-based, human; settings: cytomix plus CGP, FIG. 7
# Description: The effect of exogenous cytokines was measured for each parameter in the presence and absence of CGP. […] Cells were grown to confluence on transwell inserts, then challenged with a mixture of the cytokines TNFα (tumor necrosis factor alpha), ILβ (interleukin beta), and IFγ (interferon gamma) (“cytomix”) in the presence or absence of increasing concentrations of CGP. At the appropriate time points, apical to basolateral mannitol flux was measured. TEER, E-Cadherin expression and media concentrations of S1P were measured in separate experiments.
# Caco-2 cells [8] = experiment: Baseline mannitol flux across Caco-2 monolayers on transwell inserts; type: cell-based, human; settings: increasing concentrations of CGP, FIG. 1
# Description: Experiments were conducted on Caco-2 cells, a line of heterogeneous human epithelial colorectal adenocarcinoma cells derived from a colorectal carcinoma and grown on transwell permeable inserts. Despite their origins, in culture these cells express the characteristics of small intestinal enterocytes upon prolonged culture (C. Jumarie et al. J Cell. Physiol. 149: 24-33, (1991)). They are widely used as a model of transepithelial transport in the small intestine, and are considered a model for celiac disease (G. Iacomino et al. J Agric Food Chem. 6; 61(5):1088-962013 (2013); I. Caputo et al. PLoS One. 7(9):e45209 (2012); T. Rauhavirta et al. J Clin Immunol.; 33(1):134-42 (2013)).
# The TEER results are verified by measuring the flux of mannitol, a polyhydroxy alcohol, across the cell monolayer. Mannitol flux is exclusively by the paracellular route, so that its movement is inversely proportional to the tightness of the tight junctions. Flux is measured in both apical to basolateral and basolateral to apical directions. The rate of flux is used to calculate a permeability coefficient for the monolayers. […]
# Baseline values were obtained for each of these parameters in unstimulated cells in the presence and absence of increasing concentrations of CGP. The time course of TEER development, as well as the appropriate concentration of CGP, was determined experimentally. […]
# Caco-2 cells [9] = experiment: Baseline sphingosine 1-phosphate in media by ELISA; type: cell-based, human; settings: 24 hours incubation, increasing concentrations of CGP, FIG. 3
# Description: It is believed that CGP elevates S1P concentrations by inhibiting dephosphorylation. S1P concentrations are measured in the media of Caco-2 cells using a commercially available ELISA kit (e.g., Echelon Catalog # K-1900). The S1P concentrations are measured in the media of Caco-2 cells in the presence and absence of CGP. Cells were incubated for 24 hours in the presence of increasing concentrations of CGP. The media was removed and assayed for […] by enzyme-linked immunoassay (ELISA).
# Solubility in water = type: physicochemical
# cultured enterocytes = settings: cited from earlier work
smiles,measurement,setting,value
"O=P([O-])([O-])OCC(O)CO.[Ca+2] (centres unmarked) [CGP, 1,2,3-propanetriol, mono(dihydrogen phosphate) calcium salt (1:1)]",effect on E-Cadherin expression,Caco-2 cells [1],"may increase, but most likely does not change"
same,"mannitol penetration, Disintegrations Per Minute","Caco-2 cells [2]; CGP 0.000001 M, 2 hours",77.04 Disintegrations Per Minute
same,"mannitol penetration, Disintegrations Per Minute","Caco-2 cells [2]; CGP 0.000001 M, 4 hours",275.0632 Disintegrations Per Minute
same,"mannitol penetration, Disintegrations Per Minute","Caco-2 cells [2]; CGP 0.00001 M, 2 hours",67.95 Disintegrations Per Minute
same,"mannitol penetration, Disintegrations Per Minute","Caco-2 cells [2]; CGP 0.00001 M, 4 hours",195.9237 Disintegrations Per Minute
same,"mannitol penetration, Disintegrations Per Minute","Caco-2 cells [2]; CGP 0.0001 M, 2 hours",50.47 Disintegrations Per Minute
same,"mannitol penetration, Disintegrations Per Minute","Caco-2 cells [2]; CGP 0.0001 M, 4 hours",188.7996 Disintegrations Per Minute
same,"mannitol penetration, Disintegrations Per Minute","Caco-2 cells [2]; CGP 0.001 M, 2 hours",23.11 Disintegrations Per Minute
same,"mannitol penetration, Disintegrations Per Minute","Caco-2 cells [2]; CGP 0.001 M, 4 hours",150.2845 Disintegrations Per Minute
same,lowest CGP concentration at which the effect on mannitol penetration persists,"Caco-2 cells [2]; ischemia-mimicking conditions, Table 2 and FIG. 4",1000 nM
same,CGP effect on TEER,Caco-2 cells [3]; 24 hours,all CGP effect was lost
same,TEER versus cytomix alone and control,"Caco-2 cells [3]; ten hours, all CGP treated groups except 1 μM",significantly greater than cytomix alone and not different from control
same,effect on TEER during hypoxia (% of baseline TEER),Caco-2 cells [4],preserved TEER in a concentration dependent manner
same,time dependence of the effect on TEER during hypoxia,Caco-2 cells [4],by five hours there was no longer a discernible effect
same,time dependence of the effect on hypoxia induced mannitol flux,Caco-2 cells [5],diminished by four hours and absent by five hours
same,effect on hypoxia induced mannitol flux,Caco-2 cells [5]; concentration dependent,significantly reduced
same,persistence of the CGP effect on baseline TEER,Caco-2 cells [6]; FIG. 2,gone by four hours
same,effect on the citrate-induced reduction in baseline TEER,"Caco-2 cells [6]; FIG. 2, noticeable at two hours",prevented
same,effect on cytomix-induced increase in mannitol permeability,Caco-2 cells [7],delayed the permeability increase in a concentration-dependent manner
same,effect on baseline mannitol flux across the barrier,Caco-2 cells [8],no significant effect
same,effect on sphingosine 1-phosphate concentrations in the media,Caco-2 cells [9],does not appear to have any effect
same,solubility in water,Solubility in water,approximately 1 gram in 100 mL
"CCCCCCCCCCCCC/C=C/[C@@H](O)[C@@H](N)COP(=O)(O)O [S1P, sphingosine-1-phosphate]",effect on tightness of existing tight junctions,cultured enterocytes,increases
